Measurements taken from US6479435B1, “Diaryl ethers and processes for their preparation and herbicidal and desiccant compositions containing them” (ISK Americas Incorporated, priority 1997, dated 2002).

Tests used:
Format in all cases: in vivo
[1] = test system: soybean (Glycine max L., var. Pella 86, SOY); assay: Pre-emerge greenhouse test, crop damage rating; conditions: 14 days after application, rating scale 0-100
Outline: (§1)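 Seeds sown in sandy loam one day before track-sprayer application of acetone solutions at 125–1000 g ai/ha (187 l/ha), then surface-watered to incorporate and bottom-watered. Injury scored visually at 14 days on a 0–100 scale (0 no damage, 100 complete death).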

[2] = test system: upland rice (Oryza sp., var.Tebonnet, RICE); assay: Post-emerge greenhouse test, crop damage rating; conditions: 14 days after application
Outline: (§2)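 Plants at the 2-3 leaf stage, sown 8-21 days earlier, were track-sprayed post-emergence with compound in acetone plus 0.25% v/v non-ionic surfactant at 63-1000 g ai/ha (187 l/ha). Damage was rated at 14 days on a 0-100 scale (0 none, 100 all plants dead), for both crop injury and weed control.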

[3] = test system: field corn (Zea mays L., var. Dekalb 535, CORN); assay: Post-emerge greenhouse test, crop damage rating; conditions: 14 days after application
Outline: as §2

[4] = test system: redroot pigweed (Amaranthus retroflexus, AMARE); assay: Post-emerge greenhouse herbicide test, phytotoxicity rating; conditions: 14 days after application
Outline: as §2

[5] = test system: velvetleaf (Abutilon theophrasti, ABUTH); assay: as above; conditions: 14 days after application
Outline: as §2

[6] = test system: barnyardgrass (Echinochloa crusgalli, ECHCG); assay: as above; conditions: 14 days after application
Outline: as §2

[7] = test system: ivyleaf morningglory (Ipomoea hederacea, IPOHE); assay: as above; conditions: 14 days after application
Outline: as §2

[8] = test system: green foxtail (Setaria viridis, SETVI); assay: as above; conditions: 14 days after application
Outline: as §2

[9] = test system: sicklepod (Cassia obtusifolia, CASOB); assay: as above; conditions: 14 days after application
Outline: as §2

[10] = test system: Johnsongrass (Sorghum halepense, SORHA); assay: as above; conditions: 14 days after application
Outline: as §2

[11] = test system: lambsquarters (Chenopodium album, CHEAL); assay: as above; conditions: 14 days after application
Outline: as §2

[12] = test system: large crabgrass (Digitaria sanguinalis, DIGSA); assay: as above; conditions: 14 days after application
Outline: as §2

[13] = test system: upland rice (Oryza sp., var.Tebonnet, RICE); assay: Pre-emerge greenhouse test, crop damage rating; conditions: 14 days after application, rating scale 0-100
Outline: as §1

[14] = test system: field corn (Zea mays L., var. Dekalb 535, CORN); assay: Pre-emerge greenhouse test, crop damage rating; conditions: 14 days after application, rating scale 0-100
Outline: as §1

[15] = test system: soybean (Glycine max L., var. Pella 86, SOY); assay: Post-emerge greenhouse test, crop damage rating; conditions: 14 days after application
Outline: as §2

[16] = test system: common ragweed (Ambrosia artemisiifolia L., AMBEL); assay: Post-emerge greenhouse herbicide test, phytotoxicity rating; conditions: 14 days after application
Outline: as §2

[17] = test system: redroot pigweed (Amaranthus retroflexus, AMARE); assay: Pre-emerge greenhouse herbicide test, phytotoxicity rating; conditions: 14 days after application, rating scale 0-100
Outline: as §1

[18] = test system: common ragweed (Ambrosia artemisiifolia L., AMBEL); assay: as above; conditions: 14 days after application, rating scale 0-100
Outline: as §1

[19] = test system: velvetleaf (Abutilon theophrasti, ABUTH); assay: as above; conditions: 14 days after application, rating scale 0-100
Outline: as §1

[20] = test system: barnyardgrass (Echinochloa crusgalli, ECHCG); assay: as above; conditions: 14 days after application, rating scale 0-100
Outline: as §1

[21] = test system: ivyleaf morningglory (Ipomoea hederacea, IPOHE); assay: as above; conditions: 14 days after application, rating scale 0-100
Outline: as §1

[22] = test system: green foxtail (Setaria viridis, SETVI); assay: as above; conditions: 14 days after application, rating scale 0-100
Outline: as §1

[23] = test system: sicklepod (Cassia obtusifolia, CASOB); assay: as above; conditions: 14 days after application, rating scale 0-100
Outline: as §1

[24] = test system: Johnsongrass (Sorghum halepense, SORHA); assay: as above; conditions: 14 days after application, rating scale 0-100
Outline: as §1

[25] = test system: lambsquarters (Chenopodium album, CHEAL); assay: as above; conditions: 14 days after application, rating scale 0-100
Outline: as §1

[26] = test system: large crabgrass (Digitaria sanguinalis, DIGSA); assay: as above; conditions: 14 days after application, rating scale 0-100
Outline: as §1

Cn1nc(-c2cc(Oc3ncccn3)c(Cl)cc2F)c(Cl)c1C(F)(F)F [Compound 1-7]
80: RICE crop damage rating (0-100) ([2]; 500 g al/ha)
100: RICE crop damage rating (0-100) ([2]; 63 g al/ha) | AMARE phytotoxicity rating (0-100) ([4]; 63 g al/ha) | AMARE phytotoxicity rating (0-100) ([4]; 500 g al/ha) | ABUTH phytotoxicity rating (0-100) ([5]; 63 g al/ha) | ABUTH phytotoxicity rating (0-100) ([5]; 500 g al/ha) | ECHCG phytotoxicity rating (0-100) ([6]; 63 g al/ha) | ECHCG phytotoxicity rating (0-100) ([6]; 500 g al/ha) | IPOHE phytotoxicity rating (0-100) ([7]; 63 g al/ha) | IPOHE phytotoxicity rating (0-100) ([7]; 500 g al/ha) | SETVI phytotoxicity rating (0-100) ([8]; 63 g al/ha) | SETVI phytotoxicity rating (0-100) ([8]; 500 g al/ha) | CASOB phytotoxicity rating (0-100) ([9]; 500 g al/ha) | SORHA phytotoxicity rating (0-100) ([10]; 500 g al/ha) | CHEAL phytotoxicity rating (0-100) ([11]; 63 g al/ha) | CHEAL phytotoxicity rating (0-100) ([11]; 500 g al/ha) | DIGSA phytotoxicity rating (0-100) ([12]; 500 g al/ha) | SOY crop damage rating (0-100) ([15]; 63 g al/ha) | SOY crop damage rating (0-100) ([15]; 500 g al/ha) | AMBEL phytotoxicity rating (0-100) ([16]; 500 g al/ha) | phytotoxicity rating AMARE ([17]; 125 g ai/ha) | phytotoxicity rating AMARE ([17]; 500 g ai/ha) | phytotoxicity rating AMBEL ([18]; 125 g ai/ha) | phytotoxicity rating AMBEL ([18]; 500 g ai/ha) | phytotoxicity rating ECHCG ([20]; 125 g ai/ha) | phytotoxicity rating ECHCG ([20]; 500 g ai/ha) | phytotoxicity rating SETVI ([22]; 125 g ai/ha) | phytotoxicity rating SETVI ([22]; 500 g ai/ha) | phytotoxicity rating SORHA ([24]; 125 g ai/ha) | phytotoxicity rating SORHA ([24]; 500 g ai/ha) | phytotoxicity rating CHEAL ([25]; 125 g ai/ha) | phytotoxicity rating CHEAL ([25]; 500 g ai/ha) | phytotoxicity rating DIGSA ([26]; 125 g ai/ha) | phytotoxicity rating DIGSA ([26]; 500 g ai/ha)
40: crop damage rating CORN ([14]; 125 g ai/ha) | phytotoxicity rating IPOHE ([21]; 125 g ai/ha)
70: CORN crop damage rating (0-100) ([3]; 500 g al/ha) | crop damage rating RICE ([13]; 125 g ai/ha) | crop damage rating CORN ([14]; 500 g ai/ha) | phytotoxicity rating IPOHE ([21]; 500 g ai/ha)
90: CORN crop damage rating (0-100) ([3]; 63 g al/ha) | SORHA phytotoxicity rating (0-100) ([10]; 63 g al/ha) | DIGSA phytotoxicity rating (0-100) ([12]; 63 g al/ha) | crop damage rating RICE ([13]; 500 g ai/ha) | phytotoxicity rating ABUTH ([19]; 125 g ai/ha) | phytotoxicity rating CASOB ([23]; 500 g ai/ha)
95: AMBEL phytotoxicity rating (0-100) ([16]; 63 g al/ha) | phytotoxicity rating CASOB ([23]; 125 g ai/ha)
99: phytotoxicity rating ABUTH ([19]; 500 g ai/ha)
0: crop damage rating SOY ([1]; 125 g ai/ha) | crop damage rating SOY ([1]; 500 g ai/ha)

Cn1c(C(F)(F)F)nc(-c2cc(Oc3ncccc3[N+](=O)[O-])c(Cl)cc2F)c1Cl [Compound 2-1]
0: crop damage rating SOY ([1]; 125 g ai/ha) | RICE crop damage rating (0-100) ([2]; 63 g al/ha) | ECHCG phytotoxicity rating (0-100) ([6]; 63 g al/ha) | CASOB phytotoxicity rating (0-100) ([9]; 63 g al/ha) | SORHA phytotoxicity rating (0-100) ([10]; 63 g al/ha) | DIGSA phytotoxicity rating (0-100) ([12]; 63 g al/ha) | crop damage rating RICE ([13]; 125 g ai/ha) | crop damage rating RICE ([13]; 500 g ai/ha) | crop damage rating CORN ([14]; 125 g ai/ha) | crop damage rating CORN ([14]; 500 g ai/ha) | phytotoxicity rating AMBEL ([18]; 125 g ai/ha) | phytotoxicity rating ABUTH ([19]; 125 g ai/ha) | phytotoxicity rating ECHCG ([20]; 125 g ai/ha) | phytotoxicity rating CASOB ([23]; 125 g ai/ha) | phytotoxicity rating SORHA ([24]; 125 g ai/ha) | phytotoxicity rating DIGSA ([26]; 125 g ai/ha)
60: IPOHE phytotoxicity rating (0-100) ([7]; 63 g al/ha) | phytotoxicity rating CHEAL ([25]; 125 g ai/ha)
90: AMARE phytotoxicity rating (0-100) ([4]; 63 g al/ha) | phytotoxicity rating SETVI ([22]; 125 g ai/ha)
10: SORHA phytotoxicity rating (0-100) ([10]; 500 g al/ha) | AMBEL phytotoxicity rating (0-100) ([16]; 63 g al/ha) | phytotoxicity rating IPOHE ([21]; 125 g ai/ha)
85: ABUTH phytotoxicity rating (0-100) ([5]; 500 g al/ha)
20: RICE crop damage rating (0-100) ([2]; 500 g al/ha) | CORN crop damage rating (0-100) ([3]; 500 g al/ha) | DIGSA phytotoxicity rating (0-100) ([12]; 500 g al/ha) | phytotoxicity rating ECHCG ([20]; 500 g ai/ha)
15: CORN crop damage rating (0-100) ([3]; 63 g al/ha)
80: CHEAL phytotoxicity rating (0-100) ([11]; 63 g al/ha)
40: ABUTH phytotoxicity rating (0-100) ([5]; 63 g al/ha) | AMBEL phytotoxicity rating (0-100) ([16]; 500 g al/ha)
100: AMARE phytotoxicity rating (0-100) ([4]; 500 g al/ha) | phytotoxicity rating AMARE ([17]; 125 g ai/ha) | phytotoxicity rating AMARE ([17]; 500 g ai/ha) | phytotoxicity rating IPOHE ([21]; 500 g ai/ha) | phytotoxicity rating CHEAL ([25]; 500 g ai/ha)
65: IPOHE phytotoxicity rating (0-100) ([7]; 500 g al/ha) | SETVI phytotoxicity rating (0-100) ([8]; 500 g al/ha)
99: CHEAL phytotoxicity rating (0-100) ([11]; 500 g al/ha) | phytotoxicity rating SETVI ([22]; 500 g ai/ha)
50: SOY crop damage rating (0-100) ([15]; 63 g al/ha) | phytotoxicity rating AMBEL ([18]; 500 g ai/ha) | phytotoxicity rating ABUTH ([19]; 500 g ai/ha)
30: ECHCG phytotoxicity rating (0-100) ([6]; 500 g al/ha) | SETVI phytotoxicity rating (0-100) ([8]; 63 g al/ha) | CASOB phytotoxicity rating (0-100) ([9]; 500 g al/ha) | phytotoxicity rating CASOB ([23]; 500 g ai/ha) | phytotoxicity rating SORHA ([24]; 500 g ai/ha)
70: crop damage rating SOY ([1]; 500 g ai/ha) | phytotoxicity rating DIGSA ([26]; 500 g ai/ha)
75: SOY crop damage rating (0-100) ([15]; 500 g al/ha)
